Eight molecules from patent publication US12286437B2, “Cardiac sarcomere inhibitors” (Cytokinetics, Inc., priority 2021, dated 2025) can be followed below.

Data set [1] can be described thus: Dog cassette dosing pharmacokinetics. It counts as in vivo, beagle dogs. The note with it: male, beagle, plasma, IV; for Vd: read-out: Vss; for half-life: read-out: t½ (converted). The protocol:
Non-naïve male beagle dogs (8 months to 3 years of age, body weight 8-14 kg) sourced from Jiangsu Johnsen Bioresource CO. and/or Beijing Rixinkeji CO., LTD and/or Beijing Marshall Biotechnology CO., LTD were used in this study. All animals for IV administration had free access to food and water. The IV dose solution was prepared in 10% DMA/50% PG/40% HPβCD solution (40% w/v aqueous HPβCD) at a concentration of 0.2 mg/mL. Concentrations of IV dose was measured at the end of the study. PK parameters were calculated using the nominal dose values if the measured values were within 20% of the nominal values. Blood samples were collected by venipuncture of peripheral veins except the dosing vein at pre-dose, 5 15, 30 min, 1, 2, 4, 6, 8 and 24 h post-dose. Blood samples were centrifuged and resultant plasma was frozen for bioanalysis. Plasma samples were stored at −80° C. before analysis. Plasma samples were analyzed for compound concentrations using the LC/MS/MS method. Briefly, a 50 μL aliquot of each plasma sample was mixed with 100 μL of acetonitrile that contained an internal standard. The mixture was vortexed and centrifuged. Ten (10) μL of the resulting solution was injected onto a reverse-phase C18 column and the resultant peaks detected on a LC/MS/MS equipped with a turbo ionspray ionization source. Sample concentrations below the limit of quantification (BLQ) were treated as zero for PK calculations. PK parameters were estimated from individual animals using noncompartmental analysis of the concentration-time data (Phoenix WinNonLin software, version 64; Pharsight, Mountain View, CA). The elimination rate constant (k) was calculated as the absolute value of the slope of the linear regression of logarithm (log) of the concentration versus time for the last three data points of the concentration-time profiles. Apparent elimination half-life (t1/2) values were calculated as ln(2)/k. Area under the concentration-time curve (AUC) values were estimated using linear trapezoidal method. AUCt values were calculated from the dosing time to the last measurable concentration. AUC∞ values were calculated as the sum of the corresponding AUCt and the ratio of the last detectable concentration divided by k. Plasma clearance (CL) was calculated from Dose/AUC∞. Mean resident time extrapolated to infinity (MRT∞) was estimated by moment analysis. Vss was calculated from MRT∞×CL. Maximum concentration (Cmax) and time to reach Cmax (tmax) were recorded as observed. As this was a cross-over study, bioavailability was calculated dAUC∞,po/dAUC∞,iv×100% where dAUC was the dose normalized AUC value from the same animal given IV and PO dose. Data for compounds tested are provided in Table G. Compounds tested were prepared in accordance with the synthetic procedures described herein.

Data set [2] concerns bovine cardiac myofibrils. The experiment in a line: Myofibril assay (ATPase activity of skinned bovine cardiac myofibrils, PK/LDH-coupled). Format: biochemical. The note with it: inhibition of steady-state ATPase of bovine cardiac myofibrils; CaCl2 for 50% or 75% activation. The protocol: To evaluate the effect of compounds on the ATPase activity of full-length cardiac myosin in the context of the native sarcomere, skinned myofibril assays were performed. Bovine cardiac myofibrils were obtained by homogenizing bovine cardiac left ventricular tissue in the presence of a detergent such as triton X-100. Such treatment removes membranes and a majority of the soluble cytoplasmic proteins but leaves intact the cardiac sarcomeric acto-myosin apparatus. Myofibril preparations retain the ability to hydrolyze ATP in a Ca^2+ regulated manner. ATPase activities of such myofibril preparations in the presence and absence of compounds were assayed at Ca^2+ concentrations activating to a defined fraction of the maximal rate (i.e., […], 75%). Small molecule agents were assessed for their ability to inhibit the steady-state ATPase activity of bovine cardiac myofibrils using pyruvate kinase and lactate dehydrogenase (PK/LDH)-coupled enzyme system. This assay regenerates myosin-produced ADP into ATP by oxidizing NADH, producing an absorbance change at 340 nm. Prior to testing small molecule agents, the bovine cardiac myofibrils were assessed for their calcium responsiveness and the calcium concentration that achieves either a 50% (pCa50) or 75% (pCa75) activation of the myofibril system was chosen as the final condition for assessing the inhibitory activity of the small molecule agents. All enzymatic activity was measured in a buffered solution containing 12 mM PIPES (piperazine-N,N′-bis(2-ethanesulfonic acid), 2 mM magnesium chloride at pH 6.8 (PM 12 buffer). Final assay conditions were 1 mg/mL of bovine cardiac myofibrils, 4 U/mL pyruvate kinase, 6 U/mL lactate dehydrogenase, 50 μM ATP, 0.1 mg/mL BSA (bovine serum albumin), 10 ppm antifoam, 1 mM DTT, 0.5 mM NADH, 1.5 mM PEP, 0.6 mM EGTA, and an amount of CaCl2 sufficient to achieve either 50% or 75% activation of the myofibril ATPase activity. Results for compounds tested are provided in Table A. Compounds tested were prepared in accordance with the synthetic procedures described herein.

Data set [3] can be described thus: Monkey cassette dosing pharmacokinetics. The note with it: IV. It counts as in vivo.

The term clearance denotes the rate of elimination divided by the concentration.

Regarding `CC[C@H](C)N1CC(=O)N(Cc2ccc(F)c(C)c2)C2(CN(c3cccnn3)C2)C1=O` [Compound 16, (S)-8-(sec-butyl)-5-(4-fluoro-3-methylbenzyl)-2-(pyridazin-3-yl)-2,5,8-triazaspiro[3.5]nonane-6,9-dione], in data set [1], the clearance was determined as 33 mL/min/kg, the Vd turned out to be 7.08 L/kg and the half-life is 3.07 h. In data set [2], the “CDMF IC15” value stood at 900 nM.
Consider `CC[C@H]1CC[C@H](N2CC(=O)N(Cc3ccc(F)cc3)C3(CN(C(N)=O)C3)C2=O)CC1` [Compound 2, 8-((1r,4r)-4-ethylcyclohexyl)-5-(4-fluorobenzyl)-6,9-dioxo-2,5,8-triazaspiro[3.5]nonane-2-carboxamide], for which, in data set [1], the clearance came to 4.06 mL/min/kg, the Vd was determined as 1.99 L/kg and the half-life is 7.34 h. For the same molecule, the “CDMF IC15” value in data set [2] was determined as 2100 nM.
Taken in the same sequence, the figures for `CCC(CC)N1CC(=O)N(Cc2ccc(F)c(F)c2)C2(CN(c3cccnn3)C2)C1=O` [Compound 15, 5-(3,4-difluorobenzyl)-8-(pentan-3-yl)-2-(pyridazin-3-yl)-2,5,8-triazaspiro[3.5]nonane-6,9-dione] were 24.2 mL/min/kg, 2.84 L/kg, 1.49 h and 1400 nM.
Taken in the same sequence, the figures for `C[C@H]1CC[C@H](N2CC(=O)N(Cc3ccc(F)cc3)C3(CN(c4cccnn4)C3)C2=O)CC1` [Compound 17, 5-(4-fluorobenzyl)-8-((1r,4r)-4-methylcyclohexyl)-2-(pyridazin-3-yl)-2,5,8-triazaspiro[3.5]nonane-6,9-dione] were 41.9 mL/min/kg, 8.25 L/kg, 3.02 h and 900 nM.
Taken in the same sequence, the figures for `C[C@H]1CC[C@H](N2CC(=O)N(Cc3ccc(Cl)cc3)C3(CN(c4cccnn4)C3)C2=O)CC1` [Compound 10, 5-(4-chlorobenzyl)-8-((1r,4r)-4-methylcyclohexyl)-2-(pyridazin-3-yl)-2,5,8-triazaspiro[3.5]nonane-6,9-dione] were 36.3 mL/min/kg, 18.6 L/kg, 9.38 h and 300 nM.
In the case of `CC[C@H](C)N1CC(=O)N(Cc2ccc(F)c(F)c2)C2(CN(c3cccnn3)C2)C1=O` [Compound 14, (S)-8-(sec-butyl)-5-(3,4-difluorobenzyl)-2-(pyridazin-3-yl)-2,5,8-triazaspiro[3.5]nonane-6,9-dione], the clearance in data set [1] was found to be 36.5 mL/min/kg; in data set [3] (male, plasma), 17.1 mL/min/kg. Further, the Vd stood at 6.44 L/kg in data set [1] and 1.48 L/kg in data set [3] (male, plasma, read-out: Vss). In addition, the half-life in data set [1] is 2.43 h. In addition, the “CDMF IC15” value in data set [2] amounted to 1300 nM. In data set [3], the “t l/2” value was 1.1 h.
With `CC[C@H]1CC[C@H](N2CC(=O)N(Cc3ccc(Cl)cc3)C3(CN(C(N)=O)C3)C2=O)CC1` [Compound 1, 5-(4-chlorobenzyl)-8-((1r,4r)-4-ethylcyclohexyl)-6,9-dioxo-2,5,8-triazaspiro[3.5]nonane-2-carboxamide], in data set [1], the clearance was 3.65 mL/min/kg, the Vd came to 3.44 L/kg and the half-life is 12.5 h. In addition, the “CDMF IC15” value in data set [2] worked out at 800 nM.
As to `C[C@H]1CC[C@H](N2CC(=O)N(Cc3ccc(F)c(F)c3)C3(CN(c4cccnn4)C3)C2=O)CC1` [Compound 12, 5-(3,4-difluorobenzyl)-8-((1r,4r)-4-methylcyclohexyl)-2-(pyridazin-3-yl)-2,5,8-triazaspiro[3.5]nonane-6,9-dione], in data set [1], the clearance came out at 34.4 mL/min/kg, the Vd turned out to be 17.8 L/kg and the half-life was 7.39 h. The “CDMF IC15” value in data set [2] was determined as 400 nM.
